The values below are quoted from earlier work in US20240115591A1, “THERAPEUTIC METHODS AND COMPOSITIONS FOR TREATING BILIARY TRACT CANCER USING DEVIMISTAT” (Cornerstone Pharmaceuticals, Inc., priority 2020, published 2024).

The subject of series [1] is locally advanced or metastatic BTC. As to conditions: for OS (overall survival): 410 patients with locally advanced or metastatic BTC, phase III ABC-02.
Where [2] appears, read: ABC-02, patients with advanced BTC.

`Nc1ccn([C@@H]2O[C@H](CO)[C@@H](O)C2(F)F)c(=O)n1` [gemcitabine, 2′-deoxy-2′,2′-difluorocytidine (β-isomer)]: the “OS (overall survival)” value in series [1] was 8.1 months.

On to gemcitabine cisplatin, for which, under setting [2], the “grade 3 and 4 adverse event: abnormal liver function” value is 16.7%; the “grade 3 and 4 adverse event: anemia” value was 7.6%; the “grade 3 and 4 adverse event: deep vein thrombosis” value is given as 2%; the “grade 3 and 4 adverse event: fatigue” value was 18.7%. In addition, under setting [2], the “grade 3 and 4 adverse event: impaired renal function” value is reported as 1.5%; the “grade 3 and 4 adverse event: nausea” value is recorded as 4%; the “grade 3 and 4 adverse event: neutropenia” value is 25.3%; the “grade 3 and 4 adverse event: thrombocytopenia” value is given as 15.7%. In addition, under setting [2], the “grade 3 and 4 adverse event: thromboembolic event” value is recorded as 3.5%; the “grade 3 and 4 adverse event: vomiting” value is on record as 5.1%. In addition, the “grade 3 and 4 adverse event: infection” value (in vivo) is reported as 18.2%. The “OS (overall survival)” value in series [1] was 11.7 months. The objective response rate in series [1] (ABC-02, combination arm) is given as 26.1%. Further, the “hazard ratio (HR) for OS” value in series [1] (gemcitabine cisplatin arm versus gemcitabine alone arm, 95% CI 0.52 to 0.80, p<0.001) was 0.64. In addition, in series [1] (historical estimate from Valle et al. 2010, used as null hypothesis for the planned phase 2), the “historical ORR (CR+PR)” value was 25%.
